The values that follow come from patent US12509441B2, “Compounds used as kinase inhibitors and application thereof” (TYK MEDICINES (ZHENGZHOU), INC., priority 2020, dated 2025).

pIC50: −log10 of the molar value. Like-named read-outs stand apart in the source and are kept apart here.

As a reminder, the pIC50 is −log10 of the IC50, conventionally taken in molar units. The low end stands for a large IC50, the high end for a small IC50.

In assay [1] the target is EGFR exon 20 insertion mutant kinase A763_Y764insFHEA (Homo sapiens, UniProt P00533, INS763FHEA). The assay is described as follows: Kinase activity assay (33P-ATP filter-binding), EGFR exon 20 insertion mutant kinase A763_Y764insFHEA. Type of assay: biochemical. The following applies: ATP Km concentration; 10 concentrations.
Assay [2] has as its target Ba/F3-FL-EGFR-H773-V774 ins NPH (Homo sapiens, UniProt P00533, DUP771-773, cells depend on it). The assay is described as follows: Cell proliferation inhibitory activity test (CellTiter-Glo), EGFR exon 20 insertion mutation. As to conditions: 72 h, read-out: Ba/F3-FL-EGFR IC50 (nM) H773-V774ins NPH. It counts as cell-based. For orientation: Cellular ATP, detected with luciferase, serves as a proxy for viable cell number.
Procedure: (§1) Cell Proliferation Inhibitory Activity Test Experiment of EGFR Exon 20 Insertion Mutation:
(§2) Cells such as Ba/F3-FL-EGFR-V769-D770 ins ASV, Ba/F3-FL-EGFR-D77-N771 ins SVD, Ba/F3-FL-EGFR-H773-V774 ins NPH, Ba/F3-FL-EGFR-A763-Y764 ins FQEA, constructed by Hefei Precedo Pharmaceuticals Co., Ltd.
(§3) 1000× compound mother liquor was prepared using DMSO, diluted to 20× final concentration using a culture medium, set aside.
(§4) Cells obtained after centrifugation were suspended with a certain amount of the culture medium and counted. The cell suspension solution was adjusted to a specified density using the culture medium, the diluted cell suspension solution was taken into a 96-well plate; 5 μl of 20× compound solution was added to each well of the 96-well plate, the content of DMSO in the final system was 0.1%; the 96-well plate was incubated for 72 h in a 5% CO2 cell incubator at 37° C.
(§5) The 96-well plate was brought to room temperature before detection, 50 μl of CellTiter-Glo® reagent was added to each well, the plate was read after being shaken for 2 minutes on a shaker and placed for 10 minutes at room temperature.
(§6) Inhibition rate (Inh %) relative to control wells processed by a solvent (DMSO) was calculated using the following equation: Inhibition rate (Inh %)=100−(RLU compound−RLU blank)/(RLU control−RLU blank)*100%

Assay [3] deals with Ba/F3 (EGFRdel19/L858R/C797S) (Homo sapiens, UniProt P00533, C797S/L858R, cells depend on it, form not given). The assay can be described thus: Cell proliferation inhibitory activity test (WST-8) of related EGFR mutations. It counts as cell-based. The following applies: 72 h, cell viability; read-out: IC 50 (nM) Ba/F3 (EGFRdel19/L858/797s). (In general: Formazan colour is commonly taken as a measure of viable cells.)

The target in assay [4] is EGFR exon 20 insertion mutant kinase D770-N771insNPG (Homo sapiens, UniProt P00533, INS770NPG). The assay is described as follows: Kinase activity assay (33P-ATP filter-binding), EGFR exon 20 insertion mutant kinase D770-N771insNPG. As to conditions: ATP Km concentration; 10 concentrations. It counts as biochemical.
Assay [5] deals with PC9 (EGFRdel19) cells. The assay can be described thus: Cell proliferation inhibitory activity test (WST-8) of related EGFR mutations. The following applies: for IC50: 72 h, cell viability, read-out: IC 50 (nM) PC-9 (EGFRdel19). It counts as cell-based.
Procedure: (§7) Cell Proliferation Inhibitory Activity Test Experiments of Related EGFR Mutations: 1.
(§8) Cell culture medium: RPMI containing 10% fetal bovine serum, 5 mM HEPES, and 2 mM glutamine.
(§9) Incubated overnight in a 5% carbon dioxide incubator at 37° C.
(§10) The compound was diluted to the required concentration in the culture medium at five times the final concentration. 20 microliters of the compound diluent was transferred to a culture plate containing 80 microliters of the cells incubated overnight, and continued to be incubated for 72 hours.
(§11) After 72 hours, 10 microliters of 6 mg/ml WST8 solution dissolved in a phosphate buffer solution was added, and incubated for 3 hours in 5% carbon dioxide at 37° C. A light absorption value at 450 nm was read and subtracted by an absorption value at 650 nm.
(§12) The obtained light absorption value was used to calculate cell viability according to the following equation: Cell viability %=(OD determination value/OD drug-free cell)×100
In assay [6] the target is Ba/F3-FL-EGFR-D77-N771 ins SVD (Homo sapiens, UniProt P00533, DUP768-770, cells depend on it). The assay is described as follows: Cell proliferation inhibitory activity test (CellTiter-Glo), EGFR exon 20 insertion mutation. It counts as cell-based. The following applies: 72 h, read-out: Ba/F3-FL-EGFR IC50 (nM) D77-N771ins SVD.
Procedure: as §1, §2, §3, §4, §5, §6
Assay [7] concerns H-1975 (EGFRL858R/T790M) cells. The assay is described as follows: Cell proliferation inhibitory activity test (WST-8) of related EGFR mutations. It counts as cell-based. As to conditions: for IC50: Homo sapiens, read-out: IC 50 (nM) H-1975 (EGFRL858/T790M).
Procedure: as §7, §8, §9, §10, §11, §12
For assay [8], the target named is T1, Ba/F3-FL-EGFR-V769-D770 ins ASV (Homo sapiens, UniProt P00533, DUP767-769, cells depend on it).
T1 construct: Ba/F3-FL-EGFR IC50 (nM) V769-D770ins ASV; other: 72 h; class symbols; Ba/F3-FL-EGFR IC50 (nM) V769-D770ins ASV
The assay is described as follows: Cell proliferation inhibitory activity test (CellTiter-Glo), EGFR exon 20 insertion mutation. Type of assay: cell-based. As to conditions: 72 h, read-out: Ba/F3-FL-EGFR IC50 (nM) V769-D770ins ASV.
Procedure: as §1, §2, §3, §4, §5, §6

The target in assay [9] is Ba/F3-FL-EGFR-A763-Y764 ins FQEA (Homo sapiens, UniProt P00533, INS763FQEA, cells depend on it). The assay is described as above. Type of assay: cell-based. As to conditions: 72 h, read-out: Ba/F3-FL-EGFR IC50 (nM) A763-Y764ins FQEA.
Procedure: as §1, §2, §3, §4, §5, §6
In assay [10] the target is T2, Ba/F3-FL-EGFR-V769-D770 ins ASV (Homo sapiens, UniProt P00533, cells depend on it, form not given).
T2 construct: rows headed: activity relative to the activity of TAK-788; Ba/F3-FL-EGFR
The assay is described as above. It counts as cell-based. As to conditions: Ba/F3-FL-EGFR exon 20 insertion lines, see Table 6.

[11] abbreviates: NCI-H1975, 72 h, cell viability.

`C=CC(=O)Nc1cc(Nc2ncc(C(=O)OC(C)C)c(-c3cn(C)c4ccccc34)n2)c(OC)cc1N(C)CCN(C)C` [TAK788, reference compound]: the pIC50 in [1] is 8.38; in [4] it was 9.14. Further, the GI50 in assay [2] came out at 3.6 nM; in [3], 2630 nM; in assay [6] it was 3.9 nM; in assay [8], 4 nM; in [9], 3.3 nM. Also, the IC50 was found to be 24.1 nM in assay [5] and 101 nM in [7] (setting [11]).
Turning to `C=CC(=O)Nc1cc(Nc2ncc(-c3nnc(C)o3)c(-c3cn(C)c4ccccc34)n2)c(OC)cc1N(C)C1[C@H]2CN(C)C[C@@H]12` (stereo partly drawn) [Example 18], the GI50 in assay [2] (class symbols) was < 5 nM; in assay [2], 2.8 nM; in [3], 3980 nM; in assay [6] (class symbols), < 5 nM; in assay [6], 2.8 nM; in [8] (class symbols), < 5 nM. Besides, the GI50 was 1.9 nM in assay [8], < 5 nM in assay [9] (class symbols) and 1.8 nM in [9]. Also, the figures for the IC50 in assay [5] and in assay [7] (setting [11]) were 6.61 nM and 91.2 nM, respectively. Moreover, the “cytostatic activity compared with osimertinib and TAK788” value in [5] (C-9 (EGFRdel19)) and in assay [7] (H-1975 (EGFRL858/T790M)) was “not much different from osimertinib activity” each time. Moreover, the “activity relative to the activity of TAK-788” value in assay [10] is given as “around 2 times”.
Take `C=CC(=O)Nc1cc(Nc2nccc(-c3cn(C)c4ccccc34)n2)c(OC)cc1N(C)CCN(C)C` [AZD-9291, osimertinib, reference compound]: the IC50 in [5] was 7.85 nM; in assay [7] (NCI-H1975, 72 h), 20.2 nM.
For the molecule `C=CC(=O)Nc1cc(Nc2ncc(C(=O)OC(C)C)c(-c3nn(C)c4c3Cc3ccccc3-4)n2)c(OC)cc1N(C)CCN(C)C` [Example 14], the figures for the negative-log IC50 (pIC50) in [1] and in assay [4] were 7.35 and 8.00, respectively.
